Test results from patent publication US5371070A, “Bicyclic GnRH antagonists and a method for regulating the secretion of gonadotropins” (The Salk Institute for Biological Studies, priority 1992, dated 1994).
Positions of bridges follow the written chain, without caps; N, C: chain ends. Non-standard residues stand in square brackets, D forms with d. Residues, ends and D or L forms follow the SMILES beside them. Phe(4-Cl) = N[C@@H](Cc1ccc(Cl)cc1)C(=O)O; dPhe(4-Cl) = N[C@H](Cc1ccc(Cl)cc1)C(=O)O; 2Nal = N[C@@H](Cc1ccc2ccccc2c1)C(=O)O; d2Nal = N[C@H](Cc1ccc2ccccc2c1)C(=O)O; d3Pal = N[C@H](Cc1cccnc1)C(=O)O; Orn = NCCC[C@H](N)C(=O)O; Dab = NCC[C@H](N)C(=O)O; Dap = NC[C@H](N)C(=O)O; βAla = NCCC(=O)O; Sar = CNCC(=O)O

System: ovulation in mature female Sprague-Dawley rats
Test: rat anti-ovulation assay (in vivo)
Conditions: for Rats Ovulating: injected about noon on day of proestrus, rats ovulating/rats treated
Description: These improved bicyclic GnRH antagonists are generally characterized by a substantial ability to suppress the secretion of LH in a standard rat pituitary cell assay when administered together with a concentration of 3 nanomolar GnRH, the details of which assay are set forth in Rivier and Vale, Life Sciences, 23, 869-876 (1978). By substantial ability is meant that, at a concentration of GnRH antagonist to GnRH of about 2/1 or less, the amount of LH secreted is reduced by 50% (IDR50). Moreover, when tested in vivo in the standard rat anti-ovulation assay (Corbin et al. Endocrine Res. Commun., 2, 1 (1975)), these GnRH antagonists show complete blockage of ovulation when administered at about 200 μg or less per kilogram of body weight.
In vivo testing determines effectiveness to prevent ovulation in female rats. In this test, a specified number of mature female Sprague-Dawley rats, e.g. usually five to ten, each having a body weight from about 225 to 250 grams, is injected with a specified microgram dosage of peptide in either saline or bacteriostatic water at about noon on the day of proestrus. Proestrus is the afternoon […]. A separate female rat group is used as a control to which the peptide is not administered. Each of the control female rats ovulates on the evening of proestrus, and the number of the treated rats which ovulate is recorded. The results are set forth in the following Table A, wherein the dosages stated are in micrograms per rat.

Row | SMILES | Rats Ovulating (dosage 2.5 micrograms per rat) | Rats Ovulating (dosage 5 micrograms per rat) | Rats Ovulating (dosage 10 micrograms per rat) | also measured
1 | CC(=O)N[C@H](Cc1ccc2ccccc2c1)C(=O)N[C@H](Cc1ccc(Cl)cc1)C(=O)N[C@H](Cc1cccnc1)C(=O)N[C@H]1CC(=O)NC[C@@H](C(N)=O)NC(=O)[C@@H]2CCCN2C(=O)[C@@H]2CCNC(=O)[C@H](CCCNC(=N)N)NC(=O)CC[C@H](NC1=O)C(=O)N[C@H](CCCNC(=N)N)C(=O)N[C@@H](CC(C)C)C(=O)N2 [Peptide 1, (Cyclo 4-10,5,5'-8)[Ac-β-D-2NAL^1, (4Cl)D--Phe^2, D-3PAL^3, Asp^4, Glu^5 (Arg), D--Arg^6, Dbu^8, Dpr^10]-GnRH] (Ac-[d2Nal][dPhe(4-Cl)][d3Pal]DE[dR]L[Dab]P[Dap]-NH2; lactam 4-10; linker 5-8 via R) | 0/4 |  |  | effectiveness to prevent ovulation of female rats (at a very low dosage): significantly effective; Rats Ovulating (dosage 1.0 micrograms per rat): 2/11; dose considered totally effective to prevent ovulation (female rats): about 50 micrograms per Kg of body weight; dose at which it should likely be effective to prevent ovulation (female rats, stated as likely): about 5 μg/Kg
2 | CC(=O)N[C@H](Cc1ccc2ccccc2c1)C(=O)N[C@H](Cc1ccc(Cl)cc1)C(=O)N[C@H](Cc1cccnc1)C(=O)N[C@H]1CC(=O)NC[C@@H](C(N)=O)NC(=O)[C@@H]2CCCN2C(=O)[C@@H]2CCNC(=O)CNC(=O)CC[C@H](NC1=O)C(=O)N[C@H](CCCNC(=N)N)C(=O)N[C@@H](CC(C)C)C(=O)N2 [Peptide 2] (Ac-[d2Nal][dPhe(4-Cl)][d3Pal]DE[dR]L[Dab]P[Dap]-NH2; lactam 4-10; linker 5-8 via G) | 6/8 | 2/8 | 1/6 | Rats Ovulating (dosage 25 micrograms per rat): 0/3
3 | CC(=O)N[C@H](Cc1ccc2ccccc2c1)C(=O)N[C@H](Cc1ccc(Cl)cc1)C(=O)N[C@H](Cc1cccnc1)C(=O)N[C@H]1CC(=O)NC[C@@H](C(N)=O)NC(=O)[C@@H]2CCCN2C(=O)[C@@H]2CCNC(=O)CNC(=O)C[C@H](NC1=O)C(=O)N[C@H](CCCNC(=N)N)C(=O)N[C@@H](CC(C)C)C(=O)N2 [Peptide 3] (Ac-[d2Nal][dPhe(4-Cl)][d3Pal]DD[dR]L[Dab]P[Dap]-NH2; lactam 4-10; linker 5-8 via G) |  |  | 4/6 | Rats Ovulating (dosage 25 micrograms per rat): 0/5
4 | CC(=O)N[C@H](Cc1ccc2ccccc2c1)C(=O)N[C@H](Cc1ccc(Cl)cc1)C(=O)N[C@H](Cc1cccnc1)C(=O)N[C@H]1CC(=O)NC[C@@H](C(N)=O)NC(=O)[C@@H]2CCCN2C(=O)[C@@H]2CCNC(=O)CCNC(=O)C[C@H](NC1=O)C(=O)N[C@H](CCCNC(=N)N)C(=O)N[C@@H](CC(C)C)C(=O)N2 [Peptide 4] (Ac-[d2Nal][dPhe(4-Cl)][d3Pal]DD[dR]L[Dab]P[Dap]-NH2; lactam 4-10; linker 5-8 via βAla) | 9/14 | 7/10 | 4/5 | 
5 | CC(=O)N[C@H](Cc1ccc2ccccc2c1)C(=O)N[C@H](Cc1ccc(Cl)cc1)C(=O)N[C@H](Cc1cccnc1)C(=O)N[C@H]1CC(=O)NC[C@@H](C(N)=O)NC(=O)[C@@H]2CCCN2C(=O)[C@@H]2CCNC(=O)CN(C)C(=O)CC[C@H](NC1=O)C(=O)N[C@H](CCCNC(=N)N)C(=O)N[C@@H](CC(C)C)C(=O)N2 [Peptide 5] (Ac-[d2Nal][dPhe(4-Cl)][d3Pal]DE[dR]L[Dab]P[Dap]-NH2; lactam 4-10; linker 5-8 via Sar) |  |  | 4/9 | 
6 | CC(=O)N[C@H](Cc1ccc2ccccc2c1)C(=O)N[C@H](Cc1ccc(Cl)cc1)C(=O)N[C@H](Cc1cccnc1)C(=O)N[C@H]1CC(=O)NC[C@@H](C(N)=O)NC(=O)[C@@H]2CCCN2C(=O)[C@@H]2CNC(=O)[C@H](Cc3ccccc3)NC(=O)CC[C@H](NC1=O)C(=O)N[C@H](CCCNC(=N)N)C(=O)N[C@@H](CC(C)C)C(=O)N2 [Peptide 6] (Ac-[d2Nal][dPhe(4-Cl)][d3Pal]DE[dR]L[Dap]P[Dap]-NH2; lactam 4-10; linker 5-8 via F) |  |  | 6/8 | 
7 | CC(=O)N[C@H](Cc1ccc2ccccc2c1)C(=O)N[C@H](Cc1ccc(Cl)cc1)C(=O)N[C@H](Cc1cccnc1)C(=O)N[C@H]1CC(=O)NC[C@@H](C(N)=O)NC(=O)[C@@H]2CCCN2C(=O)[C@@H]2CCNC(=O)[C@H](Cc3ccccc3)NC(=O)CC[C@H](NC1=O)C(=O)N[C@H](CCCNC(=N)N)C(=O)N[C@@H](CC(C)C)C(=O)N2 [Peptide 7] (Ac-[d2Nal][dPhe(4-Cl)][d3Pal]DE[dR]L[Dab]P[Dap]-NH2; lactam 4-10; linker 5-8 via F) | 3/10 | 1/8 | 0/9 | Rats Ovulating (dosage 1.0 micrograms per rat): 4/7
8 | CC(=O)N[C@H](Cc1ccc2ccccc2c1)C(=O)N[C@H](Cc1ccc(Cl)cc1)C(=O)N[C@H](Cc1cccnc1)C(=O)N[C@H]1CC(=O)NC[C@@H](C(N)=O)NC(=O)[C@@H]2CCCN2C(=O)[C@@H]2CCCNC(=O)[C@H](Cc3ccccc3)NC(=O)CC[C@H](NC1=O)C(=O)N[C@H](CCCNC(=N)N)C(=O)N[C@@H](CC(C)C)C(=O)N2 [Peptide 8] (Ac-[d2Nal][dPhe(4-Cl)][d3Pal]DE[dR]L[Orn]P[Dap]-NH2; lactam 4-10; linker 5-8 via F) |  |  | 5/5 | Rats Ovulating (dosage 25 micrograms per rat): 0/8
9 | CC(=O)N[C@H](Cc1ccc2ccccc2c1)C(=O)N[C@H](Cc1ccc(Cl)cc1)C(=O)N[C@H](Cc1cccnc1)C(=O)N[C@H]1CC(=O)NC[C@@H](C(N)=O)NC(=O)[C@@H]2CCCN2C(=O)[C@@H]2CCNC(=O)[C@H](Cc3ccccc3)NC(=O)C[C@H](NC1=O)C(=O)N[C@H](CCCNC(=N)N)C(=O)N[C@@H](CC(C)C)C(=O)N2 [Peptide 9] (Ac-[d2Nal][dPhe(4-Cl)][d3Pal]DD[dR]L[Dab]P[Dap]-NH2; lactam 4-10; linker 5-8 via F) |  |  | 0/4 | 
10 | CC(=O)N[C@H](Cc1ccc2ccccc2c1)C(=O)N[C@H](Cc1ccc(Cl)cc1)C(=O)N[C@H](Cc1cccnc1)C(=O)N[C@H]1CC(=O)NC[C@@H](C(N)=O)NC(=O)[C@@H]2CCCN2C(=O)[C@@H]2CCCNC(=O)[C@H](Cc3ccccc3)NC(=O)C[C@H](NC1=O)C(=O)N[C@H](CCCNC(=N)N)C(=O)N[C@@H](CC(C)C)C(=O)N2 [Peptide 10] (Ac-[d2Nal][dPhe(4-Cl)][d3Pal]DD[dR]L[Orn]P[Dap]-NH2; lactam 4-10; linker 5-8 via F) | 6/6 | 0/4 |  | 
11 | CC(=O)N[C@H](Cc1ccc2ccccc2c1)C(=O)N[C@H](Cc1ccc(Cl)cc1)C(=O)N[C@H](Cc1cccnc1)C(=O)N[C@H]1CC(=O)NC[C@@H](C(N)=O)NC(=O)[C@@H]2CCCN2C(=O)[C@@H]2CCNC(=O)[C@H](Cc3ccc4ccccc4c3)NC(=O)CC[C@H](NC1=O)C(=O)N[C@H](CCCNC(=N)N)C(=O)N[C@@H](CC(C)C)C(=O)N2 [Peptide 11] (Ac-[d2Nal][dPhe(4-Cl)][d3Pal]DE[dR]L[Dab]P[Dap]-NH2; lactam 4-10; linker 5-8 via 2Nal) |  | 1/7 | 0/4 | 
12 | CC(=O)N[C@H](Cc1ccc2ccccc2c1)C(=O)N[C@H](Cc1ccc(Cl)cc1)C(=O)N[C@H](Cc1cccnc1)C(=O)N[C@H]1CC(=O)NC[C@@H](C(N)=O)NC(=O)[C@@H]2CCCN2C(=O)[C@@H]2CCNC(=O)[C@H](Cc3c[nH]cn3)NC(=O)CC[C@H](NC1=O)C(=O)N[C@H](CCCNC(=N)N)C(=O)N[C@@H](CC(C)C)C(=O)N2 [Peptide 12] (Ac-[d2Nal][dPhe(4-Cl)][d3Pal]DE[dR]L[Dab]P[Dap]-NH2; lactam 4-10; linker 5-8 via H) | 3/8 |  |  | Rats Ovulating (dosage 1.0 micrograms per rat): 4/4
13 | CC(=O)N[C@H](Cc1ccc2ccccc2c1)C(=O)N[C@H](Cc1ccc(Cl)cc1)C(=O)N[C@H](Cc1cccnc1)C(=O)N[C@H]1CC(=O)NC[C@@H](C(N)=O)NC(=O)[C@@H]2CCCN2C(=O)[C@@H]2CCNC(=O)[C@H](Cc3ccc(Cl)cc3)NC(=O)CC[C@H](NC1=O)C(=O)N[C@H](CCCNC(=N)N)C(=O)N[C@@H](CC(C)C)C(=O)N2 [Peptide 14] (Ac-[d2Nal][dPhe(4-Cl)][d3Pal]DE[dR]L[Dab]P[Dap]-NH2; lactam 4-10; linker 5-8 via Phe(4-Cl)) | 3/4 | 0/6 |  | 
